Results: patent US7772383B2, “Chemical PCR: Compositions for enhancing polynucleotide amplification reactions” (The Trustees of Princeton University, priority 2002, dated 2010)
Like-named read-outs stand apart in the source and are kept apart here.

How the values were obtained:
[1] = test system: bovine brain glycolipid transfer protein (GTP) cDNA (660 bp); assay: PCR amplification of GTP cDNA with diol additives, standard cycling; type: biochemical; conditions: for amplification of GTP over annealing temperature gradients (in words): 95° C. denaturing temperature
Procedure: (§1) Amplification reactions were carried out under the following general conditions. Those skilled in the art will appreciate, however, that to the extent that the conditions (set forth in this application) required for specific experiments described in this example were inconsistent with the following general conditions, limited exceptions to the following general conditions were made The general conditions were as follows: 10 Mm Tris-HCl (Ph 8.8), 50 Mm KCl, 1.5 Mm MgCl2, 0.01% (w/v) gelatin, 0.2 Um primers, 0.06 ng/ul template, 0.2 Mm each Dntp, 0.04 U/ul Taq polymerase. The templates used were bovine brain N-WASP cDNA (1518 bp), a 996 bp segment of human myeloid leukocyte c-jun cDNA, a 511 bp segment of human prostate-specific membrane antigen (PSM) cDNA, and bovine brain glycolipid transfer protein (GTP) cDNA (660 bp). cDNA synthesis was carried out using the FIRST-STRAND® RT-PCR kit from Stratagene on the respective mRNAs purchased from Clontech. All amplification reactions for gene were carried out using a single master batch of cDNA. Taq polymerase and dNTPs were obtained from Stratagene. Primers were obtained from Genosys. Primer melting temperatures (Tms) were calculated using the Genosys oligo calculator program. The sequences of the primers were as follows.
(§2) Polymerase chain reactions for the N-WASP gene were conducted on a ROBOCYCLER® Gradient 40 thermal cycler from Stratagene using 100 ul solutions in 600 ul thin-walled tubes. For expediency, amplification of c-jun, PSM and GTP was carried out in a ROBOCYCLER® Gradient 96 thermal cycler from Stratagene using 50 ul solutions in 200 ul thin-walled tubes. Prior to Taq polymerase addition, a hotstart protocol was carried out that consisted of an initial cycle of 95° C. for 5 minutes (11) to ensure complete first-strand separation, followed by a cycle of 54° C. for 5 minutes. Amplifications were run for 30 cycles. […] Extension was done at 72° C. for periods depending on target length: 2 minutes for N-WASP, 1.5 minutes for c-jun and GTP, and 1 minute for PSM. Annealings were carried out either at fixed concentrations of additives using temperature gradients of 38-56° C. for N-WASP and 44-58° C. for the other targets, or at varying concentrations of additives using fixed temperatures of 41° C. for N-WASP, 50° C. for c-jun and PSM, and 54° C. for GTP.
(§3) Amplification products were analyzed by agarose gel electrophoresis on 0.8% agarose gels in which 20 ul reaction products were loaded with 4 ul loading buffer. Gels were stained with ethidium bromide, visualized on a UV transilluminator (Fisher), and documented by photography. Densitometric quantitation of amplification products was carried out using IMAGE SCANNER® and IMAGE MASTER® software from Amersham Pharmacia. Background correction was done using the software's rolling disc method.
Investigations into the PCR enhancing capabilities of diol cosolvents were carried out using GTP as the primary template. […] The standard protocol for annealing temperature and concentration gradient screening was again followed. […] These cosolvents were thus omitted from further studies. The optimal annealing temperatures for the remaining compounds were: ethylene glycol, 1,2-propanediol, 1,3-propanediol and cis-1,2-cyclopentanediol—58° C.; 1,2-butanediol—54° C.; 1,3-butanediol and 1,4-butanediol—[…]; 2,4-pentanediol, 1,5-pentanediol, 1,6-hexanediol and MPD—56° C.

[2] = test system: GC-rich segment of crab satellite DNA; conditions: literature (Varadaraj and Skinner, 1994); cited from earlier work
[3] = test system: 511 bp segment of human prostate-specific membrane antigen (PSM) cDNA; assay: PCR amplification of PSM cDNA with diol additives, standard cycling; type: biochemical; conditions: for Specificity / Effective range / Potency: PSM; for Specificity: best specificity (densitometric volume of target as percent of total volume) over the effective range; for Effective range: concentration interval over which densitometric volume of target is at least 50% of maximum; for Potency: normalized maximum densitometric volume of target band: 1,3-Butanediol = 1
Procedure: as §1, §2, §3
(§4) With PSM, 1,2-propanediol, 1,2-butanediol, 1,3-butanediol, 1,4-butanediol and glycerol were tested; with c-jun, ethylene glycol and 1,3-propanediol were also tested in addition to these compounds. […] The following additive concentrations were tested using these annealing temperatures: 1,2-propanediol—0.5, 0.8, 1.1, 1.4, 1.7 and 2.0M; 1,2-butanediol—0.1, 0.3, 0.5, 0.6, 0.7 and 0.8M; 1,3-butanediol—0.1, 0.3, 0.5, 0.6, 0.9, 1.1, 1.2M; 1,4-butanediol—0.1 to 1.1M in 0.2M intervals; 1,5-pentanediol—0.1-0.6M in 0.1M intervals; glycerol—0.5 to 1.9M in 0.2M intervals, and 2.2M.

[4] = test system: 996 bp segment of human myeloid leukocyte c-jun cDNA; assay: PCR amplification of c-jun cDNA with diol additives, standard cycling; type: biochemical
Procedure: as §1, §2, §3, §4

[5] = when functional; general statement on prior use; cited from earlier work
[6] = test system: 1026 by segment of the Thy-1 gene from rat genomic DNA; type: biochemical
[7] = molecular target: T1, Taq polymerase (Thermus aquaticus, UniProt P19821); assay: Taq polymerase activity assays at low temperature in the presence of additives; type: biochemical; conditions: 1.0M 1,5-pentanediol, 0.7M 1,6-hexanediol; for Activity of Taq polymerase: normalized to activity of control at 62° C.; for Activation: change in Taq activity versus control
T1 construct: purchased Stratagene
Procedure: The measured polymerase activity, then, is in fact a function of two variables—temperature and additive concentration. The plot of measured activity versus temperature and additive concentration is a two-dimensional surface. While a truly comprehensive search for maximal polymerase activity would entail screening this entire surface, the number of experiments required to do so would of course be impractical. Therefore, polymerase activity was measured first as a function of temperature in the absence of additives and at one given, high additive concentration. The temperature that yielded the maximum activity of the polymerase at that concentration was then targeted for concentration gradient studies.
First, polymerase activity assays were carried out in the absence of additives and in the presence of 1.0M 1,5-pentanediol and 0.7M 1,6-hexanediol at temperatures between 46 and 62° C. Next, polymerase activity was studied at 53° C. in the presence of concentration gradients of 1,5-pentanediol, 2-pyrrolidone, sulfolane and tetramethylene sulfoxide. The concentrations tested were: 1,5-pentanediol: 1.0, 1.3, 1.5, 2.25, 3.0 and 3.5M; 2-pyrrolidone: 1.25, 1.5, 2.0 and 3.9M; sulfolane: 1.0, 1.5, 2.0 and 2.75M, tetramethylene sulfoxide: 1.0, 1.5, 2.0 and 3.0M.

[8] = test system: 50% GC DNA; assay: Predicted cosolvent-induced Tm depression of DNA; type: physicochemical; conditions: 1.0M 1,5-pentanediol, 0.7M 1,6-hexanediol, linearity not verified
Procedure: The compounds utilized in the first phase (testing using 1.0M 1,5-pentanediol and 0.7M 1,6-hexanediol at temperatures between 46 and 62° C.) were chosen on the basis of the following rationale. The optimal additive for a low temperature PCR reaction is one that lowers the melting temperature of DNA as much as possible while minimally compromising polymerase activity. 1,5-Pentanediol and 1,6-hexanediol are both powerful DNA melting agents. In addition, it was found in the 62° C. activity studies that the rate of activity decline with concentration of 1,5-pentanediol was roughly equivalent to that of 1,2-butanediol, despite the fact that the former is a much stronger DNA denaturant. 1.0M 1,5-pentanediol and 0.7M 1,6-hexanediol are predicted to lower the Tm of a 50% GC DNA by approximately the same amount: 19° C.

[9] = GTP, 95° C. denaturing, 72° C. extension, normalized maximum densitometric volume of target band: 1,5-Pentanediol = 1
[10] = GTP, concentration interval over which densitometric volume of target band is at least 50% of maximum volume
[11] = c-jun, concentration interval over which densitometric volume of target band is at least 50% of maximum volume
[12] = c-jun, normalized maximum densitometric volume of target band: 1,5-Pentanediol = 1

T1 sequence (P19821 whole entry): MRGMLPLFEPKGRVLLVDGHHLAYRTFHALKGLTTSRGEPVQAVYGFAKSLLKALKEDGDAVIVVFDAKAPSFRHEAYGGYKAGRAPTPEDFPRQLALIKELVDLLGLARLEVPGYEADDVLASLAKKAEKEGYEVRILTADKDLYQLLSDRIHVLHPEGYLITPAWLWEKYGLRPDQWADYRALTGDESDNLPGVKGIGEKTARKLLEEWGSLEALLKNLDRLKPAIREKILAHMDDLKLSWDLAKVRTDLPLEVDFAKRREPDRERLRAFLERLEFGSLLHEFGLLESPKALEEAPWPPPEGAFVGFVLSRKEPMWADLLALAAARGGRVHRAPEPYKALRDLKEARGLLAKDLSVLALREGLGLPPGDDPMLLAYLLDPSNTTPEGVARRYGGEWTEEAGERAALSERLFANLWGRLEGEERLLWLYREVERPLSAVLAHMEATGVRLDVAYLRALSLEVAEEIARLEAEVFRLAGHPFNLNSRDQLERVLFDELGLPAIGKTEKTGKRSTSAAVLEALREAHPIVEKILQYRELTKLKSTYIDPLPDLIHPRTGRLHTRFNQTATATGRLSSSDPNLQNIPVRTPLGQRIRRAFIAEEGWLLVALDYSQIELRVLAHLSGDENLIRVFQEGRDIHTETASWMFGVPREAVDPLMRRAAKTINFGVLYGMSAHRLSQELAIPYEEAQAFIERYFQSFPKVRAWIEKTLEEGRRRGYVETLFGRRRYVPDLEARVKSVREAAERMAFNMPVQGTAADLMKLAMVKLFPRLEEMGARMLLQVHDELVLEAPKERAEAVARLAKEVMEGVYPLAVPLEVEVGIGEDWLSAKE

Compound	Potency [1, 9]	Effective range [1, 10] [M]	Specificity [3] [%]	Effective range [3] [M]	Potency [3]	Effective range [4, 11] [M]	Potency [4, 12]	other results
OCC(O)CO [Glycerol, reference compound]	0.28	0.26 to 1.17	83	1.10 to 1.63	0.22	0.50 to 1.25	0.13	enhancement of crab satellite DNA amplification relative to that provided by DMSO [2]: less than 25%; concentrations at which a positive effect on PCR is usually found [5]: 5-15%
OCCO [Ethylene glycol]								Effective range [1]: 1.55 to 3.55 M; Potency [1]: 0.62; amplification yield of Thy-1 genomic DNA (in words) [6]: improve amplification yield; Effective range [4]: 0.71 to 3.10 M; Potency [4]: 0.58
CCCC(O)CO (stereo not drawn) [1,2-Pentanediol]								amplification of GTP over annealing temperature gradients (in words) ([1]; GTP): detectable amplification only in very narrow concentration ranges
OCCCCO [1,4-Butanediol]			92	0.38 to 0.80	0.65			Effective range [1]: 0.16 to 0.77 M; Potency [1]: 0.87; Effective range [4]: 0.35 to 0.91 M; Potency [4]: 0.82
CC(O)CO (stereo not drawn) [1,2-Propanediol]	0.64	0.52 to 1.79	89	0.65 to 1.40	0.75	0.43 to 1.87	0.60	
CC(O)CCO (stereo not drawn) [1,3-Butanediol]	0.85	0.29 to 0.96	94	0.55 to 1.03	1.00	0.40 to 1.12	0.77	amplification yield of Thy-1 genomic DNA (in words) [6]: particularly dramatic improvement; PSM Potency ([3]; comparative standard 95/50/72° C., 0.8 M, best result under conventional conditions, normalization reference): 1.00; PSM Specificity ([3]; comparative standard 95/50/72° C., 0.8 M, densitometric volume of target band as percent of total volume): 94%
OCCCO [1,3-Propanediol]	0.39	0.31 to 1.18				0.59 to 0.96	0.25	
CC(O)CC(C)(C)O (stereo not drawn) [2-Methyl-2,4-Pentanediol]	0.45	0.12 to 0.33						
CCCCC(O)CO (stereo not drawn) [1,2-Hexanediol]								amplification of GTP over annealing temperature gradients (in words) ([1]; GTP): detectable amplification only in very narrow concentration ranges
CC(O)CC(C)O (stereo not drawn) [2,4-Pentanediol]	0.61	0.25 to 0.70						
OCCCCCCO [1,6-Hexanediol]	0.80	0.13 to 0.29						Activity of Taq polymerase ([7]; 47° C.): 0.24; Activation ([7]; 47° C.): −27%; Activity of Taq polymerase ([7]; 48° C.): 0.36; Activation ([7]; 48° C.): −12%; Activity of Taq polymerase ([7]; 49° C.): 0.57; Activation ([7]; 49° C.): +16%; Activity of Taq polymerase ([7]; 50° C.): 0.60; Activation ([7]; 50° C.): +20%; Activity of Taq polymerase ([7]; 51° C.): 0.60; Activation ([7]; 51° C.): +13%; Activity of Taq polymerase ([7]; 52° C.): 0.64; Activation ([7]; 52° C.): +25%; Activity of Taq polymerase ([7]; 53° C.): 0.64; Activation ([7]; 53° C.): +12%; Activity of Taq polymerase ([7]; 54° C.): 0.60; Activation ([7]; 54° C.): −2%; Activity of Taq polymerase ([7]; 55° C.): 0.51; Activation ([7]; 55° C.): −27%; lowering of the Tm of a 50% GC DNA [8]: ~19 °C
O[C@@H]1CCC[C@@H]1O [cis-1,2-Cyclopentanediol]	0.91	0.13 to 0.35						
O[C@@H]1CCC[C@H]1O (relative stereo) [trans-1,2-Cyclopentanediol]								amplification of GTP over annealing temperature gradients (in words) ([1]; GTP): inhibitory at all concentrations
